The record followed here is patent US9650339B2, “Inhibitors of histone demethylases” (Gilead Sciences, Inc., priority 2013, dated 2017).

In assay [1] the test system is MCF7 cells. Description: Cell proliferation assay MCF7. The format is cell-based. The following applies: MCF7 human breast cancer cells; 120 hours; ATPlite 1 Step. In outline:
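After 120 h of compound exposure (duplicates, DMSO at most 0.5%) in DMEM GlutaMAX with 10% FBS, ATPlite 1 Step luminescence measured cellular ATP. Compound was added 24 h after seeding, at a density chosen for ~90% confluence at the end.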

Assay [2] concerns the target T1, KDM2B (FBXL10) (Homo sapiens, UniProt Q8NHM5).
T1 sequence (Q8NHM5 1-650): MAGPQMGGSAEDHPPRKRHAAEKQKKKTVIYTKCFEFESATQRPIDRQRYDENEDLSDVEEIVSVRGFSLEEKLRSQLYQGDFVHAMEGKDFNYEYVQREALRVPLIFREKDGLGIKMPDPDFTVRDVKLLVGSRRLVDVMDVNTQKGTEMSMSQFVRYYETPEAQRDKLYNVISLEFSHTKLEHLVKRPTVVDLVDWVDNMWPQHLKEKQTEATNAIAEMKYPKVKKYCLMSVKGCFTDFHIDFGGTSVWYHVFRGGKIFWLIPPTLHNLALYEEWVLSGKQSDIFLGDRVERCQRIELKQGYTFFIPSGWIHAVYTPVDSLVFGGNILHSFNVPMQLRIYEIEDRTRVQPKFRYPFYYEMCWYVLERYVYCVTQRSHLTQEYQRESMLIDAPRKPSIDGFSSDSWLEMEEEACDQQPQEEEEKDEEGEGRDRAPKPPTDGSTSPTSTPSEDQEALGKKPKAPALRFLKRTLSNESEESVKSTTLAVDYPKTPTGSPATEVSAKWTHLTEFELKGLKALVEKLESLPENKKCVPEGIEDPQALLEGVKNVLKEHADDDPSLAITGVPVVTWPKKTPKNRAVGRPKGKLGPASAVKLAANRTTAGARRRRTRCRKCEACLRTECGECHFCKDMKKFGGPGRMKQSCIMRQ
Kind of assay: Histone lysine demethylase AlphaLISA assay, KDM2B. The class given is biochemical. The following applies: read-out: KDM2B HDME Inhibition IC50. Put shortly:
(§1)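 Each enzyme was pre-incubated 10 min in buffer, then 10 min with compound in 3% DMSO solution. The reaction started with biotinylated histone H3 peptide substrate plus 25 μM L-ascorbate and 10 μM α-KG at room temperature. Detection used AlphaLISA acceptor beads, then streptavidin donor beads, in the dark.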
(Alpha assays give light when donor and acceptor beads are brought close together.)

Assay [3] addresses T2, KDM3A (JMJD1A) (Homo sapiens, UniProt Q9Y4C1).
T2 construct: 2-end; purchased BPS Bioscience, US; host or cells: Bac (baculovirus system)
T2 sequence (Q9Y4C1 2-1321 limits assumed): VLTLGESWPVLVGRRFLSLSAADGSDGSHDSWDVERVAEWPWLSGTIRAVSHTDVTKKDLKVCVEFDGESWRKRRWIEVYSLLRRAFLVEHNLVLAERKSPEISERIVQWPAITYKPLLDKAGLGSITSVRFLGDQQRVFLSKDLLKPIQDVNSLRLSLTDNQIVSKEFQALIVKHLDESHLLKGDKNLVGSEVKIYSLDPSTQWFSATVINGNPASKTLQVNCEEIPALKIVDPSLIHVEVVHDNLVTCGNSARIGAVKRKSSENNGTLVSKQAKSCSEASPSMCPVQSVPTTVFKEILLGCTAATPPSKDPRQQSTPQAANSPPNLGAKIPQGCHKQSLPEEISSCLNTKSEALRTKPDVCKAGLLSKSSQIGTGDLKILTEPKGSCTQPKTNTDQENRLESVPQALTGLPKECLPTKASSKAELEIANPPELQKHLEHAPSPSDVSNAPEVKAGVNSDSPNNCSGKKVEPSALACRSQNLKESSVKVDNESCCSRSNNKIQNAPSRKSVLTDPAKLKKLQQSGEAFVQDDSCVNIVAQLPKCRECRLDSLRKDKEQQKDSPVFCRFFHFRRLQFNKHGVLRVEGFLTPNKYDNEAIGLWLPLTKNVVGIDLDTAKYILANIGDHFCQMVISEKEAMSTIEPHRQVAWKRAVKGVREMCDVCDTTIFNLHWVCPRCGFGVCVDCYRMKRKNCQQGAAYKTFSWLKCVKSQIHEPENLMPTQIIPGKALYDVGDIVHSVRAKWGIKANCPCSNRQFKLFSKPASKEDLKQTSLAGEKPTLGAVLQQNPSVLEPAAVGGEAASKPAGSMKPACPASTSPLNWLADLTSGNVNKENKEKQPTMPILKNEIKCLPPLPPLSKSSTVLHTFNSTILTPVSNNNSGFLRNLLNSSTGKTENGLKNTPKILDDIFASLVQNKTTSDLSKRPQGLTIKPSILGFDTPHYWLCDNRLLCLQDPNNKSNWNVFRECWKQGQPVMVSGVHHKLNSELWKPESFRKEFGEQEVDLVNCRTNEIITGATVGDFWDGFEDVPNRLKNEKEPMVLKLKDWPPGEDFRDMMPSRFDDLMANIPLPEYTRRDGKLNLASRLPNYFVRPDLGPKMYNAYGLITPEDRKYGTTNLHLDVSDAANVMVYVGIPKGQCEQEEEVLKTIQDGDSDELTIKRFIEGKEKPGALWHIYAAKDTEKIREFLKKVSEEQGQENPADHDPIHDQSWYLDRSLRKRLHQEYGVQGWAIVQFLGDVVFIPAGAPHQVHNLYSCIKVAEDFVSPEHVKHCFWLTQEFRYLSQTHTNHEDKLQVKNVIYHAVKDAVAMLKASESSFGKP
Kind of assay: Histone lysine demethylase AlphaLISA assay, KDM3A. The class given is biochemical. The following applies: read-out: KDM3 A HDME Inhibition IC50. In outline:
as §1

Assay [4] concerns the target T3, KDM5C (JARID1C) (Homo sapiens, UniProt P41229).
T3 construct: 2-1560; purchased BPS; host or cells: Bac (baculovirus system)
Kind of assay: Histone lysine demethylase AlphaLISA assay, KDM5C. The following applies: read-out: KDM5C HDME Inhibition IC50. The format is biochemical. In outline: as §1

T3 sequence (P41229 2-1560): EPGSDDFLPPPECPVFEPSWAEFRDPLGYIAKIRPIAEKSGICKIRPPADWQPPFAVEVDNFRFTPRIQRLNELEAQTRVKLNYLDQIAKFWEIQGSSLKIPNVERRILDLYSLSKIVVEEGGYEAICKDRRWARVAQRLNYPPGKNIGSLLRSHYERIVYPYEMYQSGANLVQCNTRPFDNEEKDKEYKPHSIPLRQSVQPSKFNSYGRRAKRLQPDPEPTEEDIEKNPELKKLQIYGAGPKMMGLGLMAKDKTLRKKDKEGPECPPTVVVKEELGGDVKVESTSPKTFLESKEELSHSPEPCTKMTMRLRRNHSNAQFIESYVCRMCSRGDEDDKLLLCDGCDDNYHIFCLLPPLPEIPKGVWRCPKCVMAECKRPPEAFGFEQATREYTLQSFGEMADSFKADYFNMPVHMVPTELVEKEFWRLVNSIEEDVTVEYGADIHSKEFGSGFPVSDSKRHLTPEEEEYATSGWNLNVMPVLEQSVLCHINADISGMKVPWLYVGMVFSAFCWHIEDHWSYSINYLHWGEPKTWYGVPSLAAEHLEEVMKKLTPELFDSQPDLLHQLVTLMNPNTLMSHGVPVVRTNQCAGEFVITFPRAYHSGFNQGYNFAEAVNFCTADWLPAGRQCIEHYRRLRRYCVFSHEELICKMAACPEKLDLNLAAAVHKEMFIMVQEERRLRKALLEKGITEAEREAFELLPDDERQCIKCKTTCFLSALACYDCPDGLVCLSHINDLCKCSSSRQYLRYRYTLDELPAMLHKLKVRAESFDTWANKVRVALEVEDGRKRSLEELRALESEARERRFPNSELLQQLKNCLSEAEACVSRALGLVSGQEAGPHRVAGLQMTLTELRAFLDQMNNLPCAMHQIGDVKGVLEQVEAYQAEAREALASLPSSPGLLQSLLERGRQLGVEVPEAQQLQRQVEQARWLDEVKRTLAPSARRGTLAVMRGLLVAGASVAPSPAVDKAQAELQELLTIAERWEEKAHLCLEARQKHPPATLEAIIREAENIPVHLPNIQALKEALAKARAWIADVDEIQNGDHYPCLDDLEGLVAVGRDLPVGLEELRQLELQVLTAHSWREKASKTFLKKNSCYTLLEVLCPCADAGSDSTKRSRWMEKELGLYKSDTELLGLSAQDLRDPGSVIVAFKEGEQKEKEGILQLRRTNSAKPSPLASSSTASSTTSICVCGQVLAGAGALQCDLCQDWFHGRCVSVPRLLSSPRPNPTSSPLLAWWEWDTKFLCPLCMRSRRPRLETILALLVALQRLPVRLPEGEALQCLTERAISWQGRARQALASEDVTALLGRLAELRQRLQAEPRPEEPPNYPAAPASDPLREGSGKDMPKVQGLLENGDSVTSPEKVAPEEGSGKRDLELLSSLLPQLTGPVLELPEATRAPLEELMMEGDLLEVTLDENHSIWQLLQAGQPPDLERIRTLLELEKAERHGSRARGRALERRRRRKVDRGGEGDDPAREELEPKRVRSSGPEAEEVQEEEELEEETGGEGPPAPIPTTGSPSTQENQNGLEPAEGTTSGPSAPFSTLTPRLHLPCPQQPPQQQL

As usually defined, the EC50 is the midpoint of the concentration-response curve. Consider `CCN(CC)CCCCNCc1cc(C2NCCCN2C)ccn1` (stereo not drawn) [Compound 68, [4-(diethylamino)butyl]({[4-(1-methyl-1,3-diazinan-2-yl)pyridin-2-yl]methyl})amine], for which, in assay [1], the EC50 is below 250 nM.

In general, IC50 refers to the concentration that gives 50% inhibition. As to `CN(C)CCNCc1ccnc(CNCCCN(C)Cc2ccccc2)c1` [Compound 18, benzyl[3-({[4-({[2-(dimethylamino)ethyl]-amino}methyl)pyridin-2-yl]methyl}-amino)propyl]-methylamine], the IC50 in assay [2] and in assay [3] was above 2500 nM throughout.

Regarding `COc1ccccc1CN1CCC(NC(=O)CNCc2cc(CNC3CC3)ccn2)CC1` [Compound 20, 2-[({4-[(cyclopropylamino)-methyl]pyridin-2-yl}methyl)amino]-N-{1-[(2-methoxyphenyl)methyl]-piperidin-4-yl}acetamide], the IC50 in assay [2] is above 2500 nM; in assay [4] it was below 250 nM; in assay [3] it was above 2500 nM.

Consider `O=Cc1ccnc(CNCC(=O)NC2CCN(Cc3ccccc3)C2)c1` (stereo not drawn) [Compound 113, N-(1-benzylpyrrolidin-3-yl)-2-{[(4-formylpyridin-2-yl)methyl]amino}-acetamide], for which the IC50 in assay [4] is 250 to 2500 nM; in assay [3] it was above 2500 nM.

Turning to `O=Cc1ccnc(CNCCCCN(Cc2ccccc2)C2CC2)c1` [Compound 109, 2-[({4-[benzyl-(cyclopropyl)amino]-butyl}amino)methyl]-pyridine-4-carbaldehyde], the IC50 in assay [3] is above 2500 nM.

In the case of `CN(C)CCCCNCc1cc(CN)ccn1` [Compound 2, [2-({[4-(dimethylamino)butyl]-amino}methyl)pyridin-4-yl]methanamine], the IC50 in assay [2] and in assay [3] was above 2500 nM each time. The compound further showed an EC50 in assay [1] below 250 nM.

For `COC(=O)CNCc1cc(/C=N/C2CC2)ccn1` [Compound 59, methyl 2-[({4-[N-cyclopropyl-carboximidoyl]pyridin-2-yl}methyl)amino]-acetate], the figures for the half-inhibitory concentration (IC50) in assay [4] and in assay [3] were below 250 nM and above 2500 nM, respectively.

`CCN(CCN(C)C)C(=O)CN(Cc1cc(CNC(=O)C(F)(F)F)ccn1)C(=O)C(F)(F)F` [Compound 26, N-[(2-{[N-({[2-(dimethylamino)ethyl]-(ethyl)carbamoyl}-methyl)-2,2,2-trifluoroacetamido]-methyl}pyridin-4-yl)methyl]-2,2,2-trifIuoroacetamide]: the EC50 in assay [1] was below 250 nM.

As to `COCCNCc1ccnc(CNCCCN(C)Cc2ccccc2)c1` [Compound 19, benzyl(3-{[(4-{[(2-methoxyethyl)amino]-methyl}pyridin-2-yl)methyl]amino}-propyl)methylamine], the IC50 in assay [2], in assay [4] and in assay [3] was above 2500 nM throughout.
